The term IC50 denotes the midpoint of a concentration-inhibition curve.

This is an account of results in patent publication US6545033B1, “Fused 1-(2,6-dichloro-4-trifluoromethylphenyl)-pyrazoles, the synthesis thereof and the use thereof as pesticides” (3-Dimensional Pharmaceuticals, Inc., priority 1999, dated 2003).

For assay [1], the target named is Mouse Brain GABA Receptors. Description: In vitro assay of binding to mouse brain GABA receptors (3H-EBOB displacement, mouse brain membranes). The settings on record: displacement of 5.2 nM 3H-EBOB, about 45 min at about 24° C.
Assay [2] relates to cat fleas (Ctenocephalides felis), NC Fleas. Nature of the assay: In vivo cat flea contact assay, NC fleas. The note with it: contact with treated filter disk in vial, about 24-30 hours; mM = concentration of the DMSO solution, about 1 μL applied. How it is done: This example describes an in vivo assay to screen compounds for their ability to kill cat fleas via contact.
Test compounds were dissolved in dimethylsulfoxide (DMSO) at concentrations ranging from about 0.05 mM to about 100 mM. About 1 μL of dissolved test compound was dispensed onto a 6 mm (diameter) GF/C filter disk (filter material available from Whatman Inc., Clifton, N.J.) in the bottom of a 4 mL screw-top glass vial and allowed to air dry 24-48 hours. Positive control vials were prepared in the same manner except that no test compounds were dissolved in the DMSO. About 20 newly emerged cat fleas (Ctenocephalides felis) were sedated by refrigeration at 0-4° C. and transferred to each vial. Each vial was sealed with a thin, perforated Teflon™ septum secured by an open top screw cap and held vertically in the dark. After about 24-30 hours, the healthy, moribund, and dead cat fleas in each vial were counted. The percentage of dead cat fleas in each vial was then calculated using the formula M=100(D−(FC/100))/(F−(FC/100)), in which M is the percentage of dead cat fleas due to the addition of the test compound, D is the number of dead cat fleas in the test vial, F is the total number of cat fleas in the test vial, and C is the percentage of dead cat fleas in the control vials.

In assay [3] the test system is houseflies (Musca domestica). Nature of the assay: In vivo housefly contact assay. The note with it: contact in coated glass test tube, about 24 hours; mM = concentration of the DMSO solution, about 1 μL applied. The procedure:
This example describes an in vivo assay to screen compounds for their ability to kill houseflies via contact. Newly emerged houseflies (Musca domestica, available from Rincon-Vitova Insectaries, Inc., Ventura, Calif.) were sedated with carbon dioxide gas, collected in 50 mL polypropylene conical tubes containing filter paper saturated with 10% (w/w) sucrose in water, and allowed to feed at room temperature for about 2-4 hours. Test compounds were dissolved as in dimethylsulfoxide (DMSO) at concentrations ranging from about 0.05 mM to about 100 mM. About 1 μL of dissolved test compound and about 100 μL of isopropanol were dispensed into the bottom of a 9 mL screw-top glass test tube. Positive control test tubes were prepared in the same manner except that no test compounds were dissolved in the DMSO. Each test tube was rolled to coat the sides with the chemical solution, and allowed to air dry 24-48 hours. About 20 houseflies were sedated by refrigeration at 0-4° C. and transferred to each test tube. Each test tube was sealed with organdy cloth secured by an open top screw cap and laid horizontally in the dark. After about 24 hours, the healthy, moribund, and dead houseflies in each test tube were counted. The percentage of dead houseflies in each test tube was then calculated using the formula M=100(D−(FC/100))/(F−(FC/100)), in which M is the percentage of dead houseflies due to the addition of the test compound, D is the number of dead houseflies in the test tube, F is the total number of houseflies in the test tube, and C is the percentage of dead houseflies in the control test tubes.

In assay [1], `FC(F)(F)c1cc(Cl)c(-n2cc3c(n2)CSC3)c(Cl)c1` [Compound 3, 2-[2,6-Dichloro-4-(trifluoromethyl)phenyl]-4,6-dihydrothieno-[3,4-c]pyrazole] registered an IC50 of 2000 nM. Moreover, in assay [2], the “LD50 (mM), NC Fleas” value amounted to 3.0 mM. Also, the “LD50 (mM), Flies” value in assay [3] is recorded as 2.7 mM.

In assay [1], `FC(F)(F)c1cc(Cl)c(-n2cc3c(n2)CCC3)c(Cl)c1` [Compound 11, 2-[2,6-Dichloro-4-(trifluoromethyl)phenyl]-2,4,5,6-tetrahydrocyclopenta[c]pyrazole] returned an IC50 of 1600 nM. Also, the “LD50 (mM), NC Fleas” value in assay [2] is given as 7 mM. For the same compound, the “LD50 (mM), Flies” value in assay [3] is above 100 mM.

Turning to `FC(F)(F)c1cc(Cl)c(-n2cc3c(n2)CCCCC3)c(Cl)c1` [Compound 15, 2-[2,6-Dichloro-4-(trifluoromethyl)phenyl]-2,4,5,6,7,8-hexahydrocyclohepta[c]pyrazole], in assay [1], the IC50 was 30000 nM. Besides, the “LD50 (mM), NC Fleas” value in assay [2] came to 33.5 mM. The “LD50 (mM), Flies” value in assay [3] is listed as above 100 mM.
